The test system of series [1] is A549. In words: Antiproliferative activity in human A549 cells assessed as inhibition of cell proliferation at 3.125 nM incubated for 72 hrs by MTT assay. In kind it is functional. As to conditions: A549, 72 h. (In general: Tetrazolium dyes change colour on reduction, which living cells bring about.)
Series [2] relates to A549. In words: Antiproliferative activity in human A549 cells assessed as inhibition of cell proliferation at 12.5 nM incubated for 72 hrs by MTT assay. As to conditions: A549, 72 h. The format is functional.
Series [3] relates to A549. In words: Antitumor activity against human A549 cells xenografted in Balb/c nude mouse assessed as tumor volume at 6 mg/kg, iv dosed as Q3D x 3 weeks regime relative to untreated control. The format is functional. (In xenograft studies the graft and the host belong to different species.)
Series [4] has as its system NCI-H1975. In words: Antiproliferative activity in human NCI-H1975 cells assessed as inhibition of cell proliferation at 3.125 nM incubated for 72 hrs by MTT assay. The format is functional. As to conditions: NCI-H1975, 72 h.
The subject of series [5] is A549. In words: Antiproliferative activity in human A549 cells assessed as inhibition of cell proliferation at 6.25 nM incubated for 72 hrs by MTT assay. The format is functional. As to conditions: A549, 72 h.
Series [6] relates to NCI-H1975. In words: Antiproliferative activity in human NCI-H1975 cells assessed as inhibition of cell proliferation at 25 nM incubated for 72 hrs by MTT assay. The format is functional. As to conditions: NCI-H1975, 72 h.
The subject of series [7] is A549. The experiment in a line: Antitumor activity against human A549 cells xenografted in Balb/c nude mouse assessed as tumor weight at 6 mg/kg, iv dosed as Q3D x 3 weeks regime (reference value: 0.596 +/- 0.042 g). The format is functional.
The test system of series [8] is A549. In words: Antiproliferative activity in human A549 cells assessed as inhibition of cell proliferation at 25 nM incubated for 72 hrs by MTT assay. As to conditions: A549, 72 h. The format is functional.
A further series concerns the target Tubulin (Homo sapiens) (UniProt P68371+Q9H4B7+P0DPH7+P68366+Q13509+Q71U36+P04350+Q3ZCM7+P07437+P68363+Q9BQE3+Q6PEY2+Q13885+Q9BVA1+Q9BUF5). The experiment in a line: Inhibition of tubulin (unknown origin) polymerization at 5 uM. In kind it is protein-complex assay.
Series [9] concerns NCI-H1975. In words: Antiproliferative activity in human NCI-H1975 cells assessed as inhibition of cell proliferation at 6.25 nM incubated for 72 hrs by MTT assay. The format is functional. As to conditions: NCI-H1975, 72 h.
In series [10] the test system is A549. In words: Antiproliferative activity in human A549 cells assessed as inhibition of cell proliferation at 1.5625 nM incubated for 72 hrs by MTT assay. As to conditions: A549, 72 h. The format is functional.
In series [11] the test system is A549. The experiment in a line: Cytotoxicity in human A549 cells assessed as reduction in cell viability incubated for 72 hrs by MTT assay. In kind it is functional, cell-based. As to conditions: A549, 72 h.
Series [12] in a line: Toxicity in human A549 cells xenografted Balb/c nude mouse assessed as body weight change weight at 6 mg/kg, iv dosed on day 0, 3, 6, 9, 12, 15 and 18 regime (reference value: 6.96%). The format is organism-based. As to conditions: in vivo.
For series [13], the system named is NCI-H1975. The experiment in a line: Antiproliferative activity in human NCI-H1975 cells assessed as inhibition of cell proliferation at 1.5625 nM incubated for 72 hrs by MTT assay. In kind it is functional. As to conditions: NCI-H1975, 72 h.
The test system of series [14] is NCI-H1975. In words: Antiproliferative activity in human NCI-H1975 cells assessed as inhibition of cell proliferation at 50 nM incubated for 72 hrs by MTT assay. The format is functional. As to conditions: NCI-H1975, 72 h.
A short description of series [15]: Toxicity in human A549 cells xenografted Balb/c nude mouse assessed as body weight change weight at 12 mg/kg, iv dosed on day 0, 3, 6, 9, 12, 15 and 18 regime (reference value: 6.96%). In kind it is organism-based. As to conditions: in vivo.
Series [16] deals with NCI-H1975. The experiment in a line: Antiproliferative activity in human NCI-H1975 cells assessed as inhibition of cell proliferation at 12.5 nM incubated for 72 hrs by MTT assay. As to conditions: NCI-H1975, 72 h. The format is functional.
Series [17] concerns A549. In words: Antitumor activity against human A549 cells xenografted in Balb/c nude mouse assessed as tumor volume at 12 mg/kg, iv dosed as Q3D x 3 weeks regime relative to untreated control. In kind it is functional.
The test system of series [18] is NCI-H1975. The experiment in a line: Cytotoxicity in human NCI-H1975 cells assessed as reduction in cell viability incubated for 72 hrs by MTT assay. The format is functional, cell-based. As to conditions: NCI-H1975, 72 h.
The test system of series [19] is A549. The experiment in a line: Antiproliferative activity in human A549 cells assessed as inhibition of cell proliferation at 50 nM incubated for 72 hrs by MTT assay. In kind it is functional. As to conditions: A549, 72 h.
Series [20] has as its system A549. In words: Antitumor activity against human A549 cells xenografted in Balb/c nude mouse assessed as tumor weight at 12 mg/kg, iv dosed as Q3D x 3 weeks regime (reference value: 0.596 +/- 0.042 g). The format is functional.
A short description of series [21]: Toxicity in human A549 cells xenografted Balb/c nude mouse assessed as body weight change weight at 3 mg/kg, iv dosed on day 0, 3, 6, 9, 12, 15 and 18 regime (reference value: 6.96%). The format is organism-based. As to conditions: in vivo.
Series [22] concerns A549. The experiment in a line: Antitumor activity against human A549 cells xenografted in Balb/c nude mouse assessed as tumor volume at 3 mg/kg, iv dosed as Q3D x 3 weeks regime relative to untreated control. In kind it is functional.
For series [23], the system named is A549. The experiment in a line: Antitumor activity against human A549 cells xenografted in Balb/c nude mouse assessed as tumor weight at 3 mg/kg, iv dosed as Q3D x 3 weeks regime (reference value: 0.596 +/- 0.042 g). The format is functional.
Series [24] can be described thus: Toxicity in Balb/c nude mouse dosed intravenously every 3 days for consecutive 21 days. The format is organism-based. As to conditions: in vivo, iv.
The test system of series [25] is A549. In words: Antitumor activity against human A549 cells xenografted in Balb/c nude mouse assessed as tumor volume at 10 mg/kg, iv dosed as QW x 3 weeks regime relative to untreated control. The format is functional.
Series [26] in a line: Toxicity in human A549 cells xenografted Balb/c nude mouse assessed as body weight change weight at 10 mg/kg, iv dosed on day 0, 7 and 14 (reference value: 6.96%). The format is organism-based. As to conditions: in vivo.
For series [27], the system named is A549. The experiment in a line: Antitumor activity against human A549 cells xenografted in Balb/c nude mouse assessed as tumor weight at 10 mg/kg, iv dosed as QW x 3 weeks regime (reference value: 0.596 +/- 0.042 g). The format is functional.

Structures are written as SMILES.

On to `CC(C)(C)c1[nH]cnc1/C=c1\[nH]c(=O)/c(=C/c2ccccc2)[nH]c1=O` [PLINABULIN], for which the inhibition – broadly, the drop in the measured response relative to a control, in per cent – at 0.003125 µM in the series with A549 [1] fell in the range of 42.5 to 50.8%; in the series on NCI-H1975 [4], 3.89 to 15.5%. For the same compound, the inhibition at 0.0125 µM was 85.1 to 88.9% with A549 [2] and 61.1 to 69.1% in the series on NCI-H1975 [16]. Moreover, the results for the T/C in the series with A549 [3] and in the series on A549 [17] were 61.48% and 56.7%, respectively. Further, the inhibition at 0.00625 µM with A549 [5] lay within 88 to 88.7%; in the series with NCI-H1975 [9], 13.3 to 25.7%. Moreover, the values for the inhibition at 0.025 µM with NCI-H1975 [6] and in the series with A549 [8] were 86.3 to 90.8% and 88.4 to 89.5%, respectively. Further, the Activity with A549 [7] was 0.349 g; in series [12] it was 5.66%; in series [15], 6.33%; in the series on A549 [20] it was 0.327 g. In addition, the values for the inhibition at Tubulin (Homo sapiens) and at Tubulin (Homo sapiens) (tested as the 2H-labelled form) were 27.9% and 30.1%, respectively. The inhibition at 0.0015625 µM in the series with A549 [10] is 23.3 to 29.4%; in the series on NCI-H1975 [13] it was 1.03 to 11.2%. Further, the half-inhibitory concentration (IC50) (in general, the midpoint of a concentration-inhibition curve) in the series with A549 [11] worked out at 3.5 nM; in the series with NCI-H1975 [18] it was 10.2 nM. Further, the inhibition at 0.05 µM was in the range of 88.7 to 91.3% in the series on NCI-H1975 [14] and 86.6 to 89.2% in the series with A549 [19].
As for `[2H]/C(c1nc[nH]c1C(C)(C)C)=c1/[nH]c(=O)/c(=C/c2ccccc2)[nH]c1=O`, the inhibition at 0.003125 µM in the series with A549 [1] lay in the range of 54.8 to 61.6%; in the series with NCI-H1975 [4], 3.64 to 12.3%. For the same compound, the values for the inhibition at 0.0125 µM in the series on A549 [2] and in the series on NCI-H1975 [16] were 83.2 to 86.3% and 70.7 to 81.7%, respectively. Also, the values for the T/C in the series on A549 [3], in the series on A549 [22] and with A549 [17] were 59.01%, 70.88% and 54.39%, respectively. In addition, the inhibition at 0.00625 µM in the series with A549 [5] lay within 82 to 86.7%; in the series on NCI-H1975 [9] it was 12.3 to 22.6%. Further, the inhibition at 0.025 µM in the series on NCI-H1975 [6] is 90.4 to 91.5%; in the series on A549 [8], 88 to 88.7%. Also, the Activity with A549 [7] is 0.344 g; in series [21], 6.75%; in the series with A549 [23], 0.442 g; in [12], 6.78%; in series [15] it was 2.36%; with A549 [20] it was 0.308 g. Also, the results for the inhibition at 0.0015625 µM with A549 [10] and with NCI-H1975 [13] were 0.92 to 9.22% and 2.75 to 10.3%, respectively. Moreover, the IC50 in the series with A549 [11] was determined as 2.5 nM; in the series on NCI-H1975 [18] it was 9.3 nM. In addition, the inhibition at 0.05 µM with NCI-H1975 [14] lay within 90.8 to 91.7%; in the series with A549 [19] it was 83.2 to 87.9%. Moreover, the 50% lethal dose (LD50) (usually the dose at which mortality reaches 50%) at 21 days in [24] turned out to be 18.9 mg/kg.
On to `CC(=O)O[C@@]12CO[C@@H]1C[C@H](O)[C@@]1(C)C(=O)[C@H](O)C3=C(C)[C@@H](OC(=O)[C@H](O)[C@@H](NC(=O)OC(C)(C)C)c4ccccc4)C[C@@](O)([C@@H](OC(=O)c4ccccc4)[C@H]21)C3(C)C` [DOCETAXEL ANHYDROUS], for which the T/C – broadly, the result in the treated group divided by that in the control group, in per cent – in the series with A549 [25] was 26.5%. Moreover, the Activity in series [26] is -0.66%; in the series on A549 [27], 0.13 g.

The values above are taken from ChEMBL document CHEMBL4392834, “Polymorphs, co-crystal structure and pharmacodynamics study of MBRI-001, a deuterium-substituted plinabulin derivative as a tubulin polymerization inhibitor” (Bioorg Med Chem, 2019).
